In US7332617B2, “Process for the preparation of docetaxel trihydrate” (Shanghai Desano Chemical Pharmaceutical Co., Ltd., priority 2003, dated 2008):

Tests used:
[1] = exposure in light (purity); type: physicochemical; conditions: exposed in light for 10 hours
Description: It is sensitive to light in some way. Shortening of the filtration time decreased the exposure time, thus the reduction of purity was avoided.

[2] = stability in high temperature; type: physicochemical
Method: 2. Lower operation temperature (below 40° C.). As Docetaxel's stability is bad in high temperature, this will help to avoid any purity drop of Docetaxel in purification process.

[3] = system: transferring breast cancer; conditions: cited from earlier work
[4] = stability test at 40° C., relative humidity 75%, 12 months; type: physicochemical; conditions: relative humidity of 75%
Method: The experiment conditions for testing the stability are: under temperature of 40° C., at relative humidity of 75%, 12 months. Within this period, the trihydrate compound remain no change.

[5] = according to Chinese patent 95193984.X; cited from earlier work

SMILES | purity on exposure in light [1] | stability in high temperature [2] | CR (Complete Resultful) ([3]; one research report) [%] | total chemotherapy efficiency of single Docetaxel ([3]; phase II clinical trial, patients who have received chemotherapy, generally 100 mgs/m^2, infusion, once per 3 weeks) [%] | stability [4] | stability compared with anhydrous compound [5]
CC(=O)O[C@@]12CO[C@@H]1C[C@H](O)[C@@]1(C)C(=O)[C@H](O)C3=C(C)[C@@H](OC(=O)[C@H](O)[C@@H](NC(=O)OC(C)(C)C)c4ccccc4)C[C@@](O)([C@@H](OC(=O)c4ccccc4)[C@H]21)C3(C)C [Docetaxel] | purity dropped | bad | 4 | 47 |  | 
CC(=O)O[C@@]12CO[C@@H]1C[C@H](O)[C@@]1(C)C(=O)[C@H](O)C3=C(C)[C@@H](OC(=O)[C@H](O)[C@@H](NC(=O)OC(C)(C)C)c4ccccc4)C[C@@](O)([C@@H](OC(=O)c4ccccc4)[C@H]21)C3(C)C [Docetaxel trihydrate, (2′R,3′S)-N-carboxy-3-phenylisoserine, N-tert-butyl ester, 13-ester with 5β,20-epoxy-1β,2α,4α,7β,10β,13α-hexahydroxytax-11-en-9-one 4-acetate-2-benzoate, trihydrate] |  |  |  |  | no change | more stable than its anhydrous compound
